Experimental findings from US8889126B2, “Methods and compositions for treating neuropathies” (Washington University, priority 2004, dated 2014) are described below.

The subject of one data set is DRG explant neurons. The experiment in a line: in vitro Wallerian degeneration assay: DRG explant cultures, axonal transection by removal of neuronal cell bodies. The format is cell-based, mouse. The following applies: lentivirus-infected DRG neurons. As to the method:
To identify the mechanism of delayed axonal degeneration mediated by the Wld^s protein, we employed an in-vitro Wallerian degeneration model. Primary DRG explant neurons were infected with lentivirus expressing the appropriate proteins, and axons were injured by either removal of the neuronal cell body (transection) or growth in vincristine (toxic).
Mouse DRG explants from E12.5 embryos were cultured in the presence of 1 nM nerve growth factor. Non-neuronal cells were removed from the cultures by adding 5-fluorouracil to the culture medium. Transection of neurites was performed at 10-20 DIV using an 18-gauge needle to remove the neuronal cell bodies. Incubation with β-nicotinamide adenine dinucleotide (Sigma) or Sirtinol (Calbiochem) was performed using conditions indicated in the text or figures.
Lentiviral expression vectors were generated using HEK293T cells as described above. For confirmation of lentivirus-derived protein expression, HEK293T cells were infected with lentivirus and cells were lysed 3 days after infection. These lysates were analyzed by immunoblot to using anti-His tag monoclonal antibody (Qiagen) to detect expression of the respective hexahistidine-tagged proteins. Lentiviral infection of DRG neurons was performed by incubating ˜10^6-10^7 pfu/ml virus with the DRG explant for 24 h beginning 3-7 days prior to axonal transection. The infected neurons were examined under an inverted fluorescent microscope to insure detectable lentivirus-mediated transgene expression in >95% of neurons.
Quantitative analysis of axonal degeneration was performed as previously described (Zhai, et al., Neuron 39:217-25, 2003). Briefly, the cultures were examined using phase contrast microscopy at the indicated times. Axons with a fragmented, non-refractile appearance were designated as “degenerated.” At each time point, at least 200 singly distinguishable axons were blindly scored from several randomly taken images of each culture. Each condition was tested in triplicate explants in each experiment. Results were obtained from 2-4 independent experiments for each condition. Statistical analysis was performed by Student's T test. For calculations of neurite-covered area, digitally captured images from quadruplicate samples of two independent experiments were analyzed using analysis 3.1 software (Soft Imaging System, Lakewood, Colo.).
Cell culture, in vitro axotomy, and quantification of axonal degeneration. Mouse DRG explants from E12.5 embryos were cultured in the DMEM containing 10% FCS and 1 nM nerve growth factor. Non-neuronal cells were removed from the cultures by adding 5-fluorouracil to the culture media. Transection of neurites was performed at 14-21 DIV using an 18-gauge needle to remove the neuronal cell bodies. Lentiviral expression vectors were generated. Lentiviral infection was performed 3-7 days prior to axonal transection for 24 hr. Quantitative analysis of neurite degeneration was performed.

Data set [1] relates to NAD generated after 1 hour at 37 deg. Put plainly: relative NMNAT enzymatic activity of affinity purified 6xHis-tagged proteins from HEK293T cells. The format is biochemical. The note with it: affinity purified protein, normalized to protein concentration. As to the method:
NMNAT protein overexpression, affinity purification and enzymatic assay. HEK293T cells were transfected with an expression plasmid for each enzyme by using calcium phosphate precipitation. Three days later, cells were washed with PBS twice and then suspended in the buffer containing 50 mM Sodium Phosphate (pH8.0), and 300 mM NaCl (buffer A). Cells were then homogenized by SONIFIRE 450 (BRANSON) and supernatant was collected by centrifugation at 10,000 g for 10 min. […] Relative NMNAT enzymatic activity was measured by using affinity purified proteins as described before and subtracted the value obtained from mock transfected cells and normalized by the amount of recombinant protein determined by densitometry.
Next we confirmed enzymatic activity of cytNMNAT1, NMNAT1 and its mutant cytNMNAT1 were purified from the cell lysate expressing either of proteins by using affinity gel. […] We expressed hexa-histidine tagged NMNAT3 or nucNMNAT3 in HEK293T cells and analyzed subcellular localization and its enzymatic activity. […] In these investigations, the amount of NAD generated after 1 hour at 37 deg was converted NADH, quantified and normalized to protein concentration. […] FIG. 7E presents a quantitative analysis of remaining neurite numbers at 12, 24, 48, and 72 hours after axotomy. […]

With “NMNAT3: murine nicotinamide mononucleotide adenylyltransferase3”, the “axonal degeneration after transection in neurons expressing the construct” value in the data set with DRG explant neurons was “same extent of delay in neurite degeneration as well as NMNAT1”. Besides, the “enzymatic activity (relative NMNAT activity)” value in data set [1] is recorded as “comparable enzymatic activity compared with NMNAT1”.
